{"source": "patent US11045480B2", "about": "“Anti-huLRRC15 antibody drug conjugates and methods for their use” (AbbVie Inc., priority 2015, dated 2021)", "type_in_all_cases": "in vivo, mouse", "key": {"[1]": {"test_system": "HPAF-II (human pancreatic) xenograft", "assay": "HPAF-II xenograft tumor growth", "experimental": "For the experiment, 1 million cells (HPAF-II) that were grown in vitro were inoculated subcutaneously per mouse into the right flank of female SCID-Beige mice. Tumors were size matched at ˜200 mm^3, and dosed intraperitoneally (IP) Q4D×6 (1 dose given every 4 days for a total of 6 doses) as shown in FIG. 13B.\nIn FIG. 21A, HPAF-II pancreatic cancer cells (1 million) were implanted subcutaneously into SCID mice, and mice were randomized when the tumors reached ˜200 mm^3 and dosed with biologics at 6 mg/kg intraperitoneally on a Q4D×6 (one dose given every 4 days for a total of 6 doses), while gemcitabine was dosed intraperitoneally at 100 mg/kg (Q3D×4)×2 (one dose given every three days for 4 doses per cycle, 2 cycles with 8 total doses given)."}, "EBC-1 tumors": {"test_system": "EBC-1 tumors", "assay": "Ex vivo analysis (flow cytometry, microscopy, IHC) of treated EBC-1 tumors", "experimental": "For the experiments, 5 million EBC-1 cells grown in vitro were implanted per mouse into the right flank of SCID-beige mice. Tumors were size-matched at ˜300 mm^3 and treated on day 0 and day 4 with 6 mg/kg intraperitoneally for each biologic drug shown in FIG. 15A. Tumors were harvested from the mice in each group 11 days post randomization and start of treatment. Tumors were dissociated into single cell suspensions using Miltenyi Biotec gentleMACS Dissociator according to the manufacturer's guidelines for the dissociation of tough tumors. Dissociated tumor cells were passed through a 70 μm filter, counted, and immediately used for flow cytometry. Single-cell suspensions were resuspended in PBS with 10% FBS and 10 μg/mL FcR block (anti-mouse CD16/CD32, clone 93, eBioscience, Cat. #16-0161.) The following directly conjugated antibodies were used for flow cytometry: human IgG1 κ isotype control (AB095) AF647, anti-huLRRC15 (hu208.4.1a.1a) AF647, anti-FAP (huFAP MAB5) AF647, mouse anti-human CD326 (EPCAM) PE (clone 1B7, eBioscience, Cat. #12-9326), anti-mouse CD11b PE (clone M1/70, eBioscience, Cat. #12-0112), anti mouse CD11c PE (clone N418, eBioscience, Cat. #12-0114), and anti-mouse F4/80 PE (clone BM9, eBioscience, Cat. #12-4801). Ex vivo EBC1 tumor cell suspensions were incubated with fluor-conjugated antibodies for 20 minutes on ice and washed twice using PBS with 1% FBS. Flow cytometry data were collected using a Becton Dickinson FacsCalibur, and data were analyzed using FlowJo™ analysis software (TreeStar). The ex vivo flow cytometry data (FIGS. 15B-15E) are shown as a percentage of cells gated positive for each antigen relative to total live cells gated via FSC/SCC. It should be noted that percentages reported are relative values to the total ex vivo EBC1 tumor and that a reduction in one cell population (e.g., EPCAM positive cancer cells) would result in an inverse increase in remaining cell populations when this analysis method is used.\nDissociated single-cell suspensions of the ex vivo EBC1 tumors shown in FIG. 15A were seeded at 120,000 live cells into tissue culture microscopy chamber slides. Cells were allowed to sit and incubate for 48 hours, and then fixed in 2% paraformaldehyde for 15 min at 37° C. The cells were washed with PBS and permeabilized using 0.3% Triton-X in PBS at 37° C. for 30 min. Cells were washed with PBS and blocked in 5% BSA for 30 min at 37° C. Cells were incubated with anti-α-SMA (clone 1A4 DAKO, Cat. #36962) and then detected with AlexaFluor AF594 (Life Technologies, Cat. #A21203) secondary antibody (2 μg/mL) for 30 min at 37° C. Subsequently, cells were stained using anti-human EpCAM-AF488 (Cell Signaling Technology, Cat. #5198) and washed 3× in PBS. Finally the slides were removed from the chambers and mounted with a coverslip using ProLong Diamond Anti-Fade with DAPI (Life Technologies, Cat. #36962). Image acquisition was performed using Zeiss Axiovision Software on a Zeiss Axiovert 200M inverted fluorescent microscope. Statistical differences between groups were determined using unpaired T tests in GraphPad Prism™. […] The percentage of pHH3 positive cells decreased with additional dosing and longer time (FIG. 15H) correlating with cancer cell death and tumor shrinkage (FIG. 15A)."}, "[2]": {"test_system": "NCI-H1650 (NSCLC) xenograft", "assay": "NCI-H1650 xenograft tumor growth", "experimental": "The potency of anti-huLRRC15 ADCs as compared to current standards of care was assessed in xenograft models with NCI-H1650 ([…]), HN5 (head and neck), EBC-1 (squamous NSCLC), NW231 (breast) and PANC1 (pancreatic) cancer cells. […] For FIG. 20A, NCI-H1650 cells (5 million cells) were implanted subcutaneously into SCID/Beige mice and tumors were randomized when they reached ˜200 mm^3 and dosed with biologics at 6 or 12 mg/kg intraperitoneally on a Q4D×6 (one dose given every 4 days for a total of 6 doses), while erlotinib was dosed orally daily for 10 days at 100 mg/kg, and carboplatin was dosed intraperitoneally Q4D×4 (one dose given every 4 days for a total of 4 doses) at 50 mg/kg.\nNCI-H1650 NSCLC cancer cells (5 million) were implanted subcutaneously into SCID/Beige mice, and mice were randomized when the tumors reached ˜200 mm^3 and dosed with biologics at 6 or 12 mg/kg intraperitoneally on a Q4D×6 (one dose given every 4 days for a total of 6 doses), while erlotinib was dosed orally daily at 100 mg/kg for 10 doses.\nNCI-H1650 NSCLC cancer cells (5 million) were implanted subcutaneously into SCID/Beige mice, and mice were randomized when the tumors reached ˜200 mm^3 and dosed on day 0 with isotype or ADC at 0.1, 0.3, or 0.6 mg/kg intraperitoneally.\nNCI-H1650 adeno NSCLC cells (5 million) were implanted subcutaneously into SCID/Beige mice, and mice were randomized when the tumors reached ˜225 mm^3 and dosed with ADC at 0.6 mg/kg or isotype antibody at 12 mg/kg intraperitoneally once on day 0."}, "[3]": {"conditions": "ADC 6 mg/kg IP Q4D×6 plus gemcitabine 100 mg/kg IP (Q3D×4)×2 (FIG. 21A)"}, "[4]": {"conditions": "SCID mice, biologics 6 mg/kg IP Q4D×6, gemcitabine 100 mg/kg IP (Q3D×4)×2 (FIG. 21A)"}, "[5]": {"conditions": "SCID-Beige mice, 6 mg/kg IP Q4D×6 (FIG. 13B)"}, "[6]": {"conditions": "EBC-1 tumors, 6 mg/kg IP day 0 and 4, harvested day 11 (FIG. 15F)"}, "[7]": {"conditions": "NCI-H1650, SCID/Beige mice, biologics 6 or 12 mg/kg IP Q4D×6, erlotinib 100 mg/kg orally daily ×10, carboplatin 50 mg/kg IP Q4D×4 (FIG. 20A, 22A)"}, "[8]": {"conditions": "NCI-H1650, ADC 6 or 12 mg/kg IP Q4D×6 plus erlotinib 100 mg/kg orally daily ×10 (FIG. 22A)"}}, "data": [{"substance": "huM25-vcMMAE-E2: huM25 conjugated with maleimidocaproyl val-cit PABA MMAE, preparation enriched in DAR2 by HIC", "values": [{"measurement": "TGD, used adjunctively with gemcitabine", "setting": "[1]; [3]", "value": 183, "unit": "%"}, {"measurement": "TGImax, used adjunctively with gemcitabine", "setting": "[1]; [3]", "value": 85, "unit": "%"}, {"measurement": "TGD, single agent", "setting": "[1]; [4]", "value": 57, "unit": "%"}, {"measurement": "TGImax, single agent", "setting": "[1]; [4]", "value": 57, "unit": "%"}, {"measurement": "TGImax", "setting": "[1]; [5]", "value": 76, "unit": "%"}, {"measurement": "tumor growth delay", "setting": "[1]; [5]", "value": 133, "unit": "%"}, {"measurement": "cancer cells in ex vivo tumor (microscopy count)", "setting": "EBC-1 tumors; [6]", "value": "significant decrease"}, {"measurement": "fibroblast population in ex vivo tumor", "setting": "EBC-1 tumors; [6]", "value": "continued to persist"}, {"measurement": "phosphohistone H3 (pHH3) staining, mitotic figures", "setting": "EBC-1 tumors; EBC-1 tumors, 6 mg/kg, after 72 hours (FIG. 15G)", "value": "higher number of mitotic figures"}, {"measurement": "staining for CD45 and F4/80", "setting": "EBC-1 tumors; EBC-1 tumors, day 11 post-treatment, 6 mg/kg, compared with isotype ADC (FIG. 15I)", "value": "enhanced staining"}, {"measurement": "immune infiltrate (CD11c or F4/80 positive cells)", "setting": "EBC-1 tumors; ex vivo flow cytometry of EBC-1 tumors post treatment (FIGS. 15D-15E)", "value": "increase in immune infiltrate"}, {"measurement": "TGD, single agent", "setting": "[2]; [7]", "value": 450, "unit": "%"}, {"measurement": "TGImax, single agent", "setting": "[2]; [7]", "value": 92, "unit": "%"}, {"measurement": "TGD, used adjunctively with erlotinib", "setting": "[2]; [8]", "value": "> 538", "unit": "%"}, {"measurement": "TGImax, used adjunctively with erlotinib", "setting": "[2]; [8]", "value": 92, "unit": "%"}]}]}
